The results in this text go back to patent US11827624B2, “Covalent immune recruiter compounds for immune cell recognition and associated uses” (McMaster University, priority 2020, dated 2023).

The test system of this test is PSMA coated beads. The test is described as follows: Flow cytometry ADCP assay, PSMA coated beads and U937 monocytes. Format: cell-based, human. The conditions noted are these: 400 nM CIR 3, 200 nM anti-DNP IgG, 10% FBS+RPMI. How it is done:
24 hours prior to inducing phagocytosis, 6 million U937 monocytes were seeded at 500,000 cells/mL and activated with IFN-γ ([…]). These cells were then counted and washed twice with serum free assay media (neat RPMI). Cells were then suspended to a concentration of 1 million cells/mL and stained with 1.9 μM Vybrant™ DiD Cell-Labelling Solution for 30 minutes (37° C., 5% CO2). Cells were then washed 3× with warm assay media (AM, 10% Ultra Low IgG FBS in RPMI) and resuspended to a concentration of 1.5 million cells/mL for use.
5.6 million YG strep beads were washed 3× with PBS and resuspended in 150 μL of a saturating concentration of biotinylated-PSMA solution. This was allowed to incubate at 4° C. for 1 hour and then washed 3× with serum free AM. The beads were resuspended with AM to a concentration of 15 million beads/mL for use.
All stocks were made in AM. The initial anti-DNP antibody stock solution was made (320 μL of 200 nM). 75 μL of this was removed and 0.4 μL of PMPA solution was added (250 mM in DMSO). […] Beads were detected in the PE-Cy7 channel, monocytes were detected in the APC Cy7 channel, PSMA loading was confirmed with the Alexa 647 channel. […] ADCP was determined by plotting monocyte stain against bead stain, and was quantified as % Target Phagocytosis=(Double Positive Events)/PSMA Bead Target Events+Double Positive Events×100. […]

On to `O=C(O)CC[C@H](NC(=O)N[C@@H](CCCCNC(=O)NCCOCCOCCOCCOCCOCCOCCOCCOC(=O)n1cnc(CCNC(=O)CNc2ccc([N+](=O)[O-])cc2[N+](=O)[O-])c1)C(=O)O)C(=O)O` [CIR 3], for which the “ADCP of PSMA coated beads” value is “could selectively affect ADCP of PSMA coated target beads via covalent recruitment of anti-DNP, in a time dependent manner”.
